Columns and labels:
[1] = tested on: MAPK-AP-1 cellular signaling pathway; test: MAPK-AP-1 pathway activity prediction (Bayesian network model, 24 target genes list) on GSE28878, HepG2 cell line; type: cell-based, human; settings: HepG2, 500 nM TPA, 12 h, 24 h, 48 h, vs DMSO control vehicle
Protocol: A HepG2 cell line was treated with DMSO as control vehicle (group 1: 12 h, all 3 samples are part of the calibration data set; group 3: 24 h, 2 samples are part of the calibration data set; group 5: 48 h, 1 sample is part of the calibration data set) or 500 nM TPA (group 2: 12 h, 1 sample is part of the calibration data set; group 4: 24 h, all 3 samples are part of the calibration data set; group 6: 48 h). In the diagram, the vertical axis indicates the odds (on a log 2 scale) that the TF element is “present” resp. “absent”, which corresponds to the MAPK-AP-1 cellular signaling pathway being active resp. passive, wherein values above the horizontal axis correspond to the TF element being more likely “present”/active and values below the horizontal axis indicate that the odds that the TF element is “absent”/passive are larger than the odds that it is “present”/active.

[2] = tested on: MAPK-AP-1 cellular signaling pathway; test: MAPK-AP-1 pathway activity prediction (24 target genes list) on GSE45417, U937 (histiocytic lymphoma) cell line; type: cell-based; settings: U937, 100 nM TPA vs 0.1% DMSO
Protocol: The U937 (histiocytic lymphoma) cell line was treated with 0.1% DMSO as control vehicle (group 1: all 3 samples are part of the calibration data set; and group 3), or 100 nM TPA (group 2: all 3 samples are part of the calibration data set; and group 4). Additionally, ZXDC1 knockdown was induced using doxycycline (groups 3 and 4). In the diagram, the vertical axis indicates the odds (on a log 2 scale) that the TF element is “present” resp. “absent”, which corresponds to the MAPK-AP-1 cellular signaling pathway being active resp. passive, wherein values above the horizontal axis correspond to the TF element being more likely “present”/active and values below the horizontal axis indicate that the odds that the TF element is “absent”/passive are larger than the odds that it is “present”/active.

[3] = tested on: MAPK-AP-1 cellular signaling pathway; test: MAPK-AP-1 pathway activity prediction (24 target genes list) on GSE66853, U937 cells; type: cell-based, human; settings: 50 ng/ml TPA for 24 h, compared to Ethanol
Protocol: U937 cells were treated with Ethanol as control vehicle (group 1: all 3 samples are part of the calibration data set; and group 3) or 50 ng/ml TPA (group 2: 1 sample is part of the calibration data set; and group 4) for 24 h. U937 cells were either transduced with an empty vector (groups 1 and 2) or with an EVI1 expression vector (groups 3 and 4). In the diagram, the vertical axis indicates the odds (on a log 2 scale) that the TF element is “present” resp. “absent”, which corresponds to the MAPK-AP-1 cellular signaling pathway being active resp. passive, wherein values above the horizontal axis correspond to the TF element being more likely “present”/active and values below the horizontal axis indicate that the odds that the TF element is “absent”/passive are larger than the odds that it is “present”/active. […] Although it is known that the FOS and JUN promoter region contains EVI1 binding sites it seems that this effect on AP-1 activity is very small compared to the addition of 50 ng/ml TPA.

[4] = tested on: MAPK-AP-1 cellular signaling pathway; test: MAPK-AP-1 pathway activity prediction (24 target genes list) on E-MEXP-2213, K562 (erythroleukemia) cells; type: cell-based; settings: K562, 10 nM TPA vs not treated
Protocol: K562 (erythroleukemia) cells were either not treated (group 1) or treated with 10 nM TPA (group 2). In the diagram, the vertical axis indicates the odds (on a log 2 scale) that the TF element is “present” resp. “absent”, which corresponds to the MAPK-AP-1 cellular signaling pathway being active resp. passive, wherein values above the horizontal axis correspond to the TF element being more likely “present”/active and values below the horizontal axis indicate that the odds that the TF element is “absent”/passive are larger than the odds that it is “present”/active.

[5] = tested on: MAPK-AP-1 cellular signaling pathway; test: MAPK-AP-1 pathway activity prediction (11 target gene shortlist) on GSE40117, hES-Hep cells; type: cell-based, Human; settings: 0.11 μM TPA vs control conditions
Protocol: (§1) Human embryonic stem cell derived hepatocyte like cells (hES-Hep) were treated with 0.11 μM TPA (group 2: all 3 samples are part of the calibration data set) and compared to control conditions (group 1). HepG2 (a human liver cancer cell line) were treated with 0.0001 μM TPA (group 4: 3 samples are part of the calibration data set) and compared to control conditions (group 3: 1 sample is part of the calibration data set). In the diagram, the vertical axis indicates the odds (on a log 2 scale) that the TF element is “present” resp. “absent”, which corresponds to the MAPK-AP-1 cellular signaling pathway being active resp. passive, wherein values above the horizontal axis correspond to the TF element being more likely “present”/active and values below the horizontal axis indicate that the odds that the TF element is “absent”/passive are larger than the odds that it is “present”/active.

[6] = tested on: MAPK-AP-1 cellular signaling pathway; test: MAPK-AP-1 pathway activity prediction (11 target gene shortlist) on GSE40117, HepG2; type: cell-based, human; settings: HepG2, 0.0001 μM TPA vs control conditions
Protocol: as §1

[7] = tested on: MAPK-AP-1 cellular signaling pathway; test: MAPK-AP-1 pathway activity prediction (11 target gene shortlist) on GSE58235, HepG2 (Human Hepatoma) cell line; type: cell-based; settings: compared to DMSO and Ethanol
Protocol: The HepG2 (Human Hepatoma) cell line was treated with 0.5% DMSO (group 1: all 3 samples are part of the calibration data set; group 4: 1 sample is part of the calibration data set), 0.5% Ethanol (groups 2 and 5) or 500 nM TPA (group 3: all 3 samples are part of the calibration data set; and group 6) for 24 hours (groups 1 to 3) or 48 hours (groups 4 to 6). In the diagram, the vertical axis indicates the odds (on a log 2 scale) that the TF element is “present” resp. “absent”, which corresponds to the MAPK-AP-1 cellular signaling pathway being active resp. passive, wherein values above the horizontal axis correspond to the TF element being more likely “present”/active and values below the horizontal axis indicate that the odds that the TF element is “absent”/passive are larger than the odds that it is “present”/active.

[8] = tested on: MAPK-AP-1 cellular signaling pathway; test: MAPK-AP-1 pathway activity prediction (11 target gene shortlist) on E-MEXP-2573, K562 (erythroleukemia) cells; type: cell-based; settings: 100 nM TPA for a further 48 h
Protocol: RNA was extracted from K562 (erythroleukemia) cells after 24 h (groups 1 and 3) or cells were treated with 100 nM TPA for a further 48 h (groups 2 and 4). K562 were either transfected with a control empty vector (groups 1 and 2) or a BASP1-containing vector (groups 3 and 4). In the diagram, the vertical axis indicates the odds (on a log 2 scale) that the TF element is “present” resp. “absent”, which corresponds to the MAPK-AP-1 cellular signaling pathway being active resp. passive, wherein values above the horizontal axis correspond to the TF element being more likely “present”/active and values below the horizontal axis indicate that the odds that the TF element is “absent”/passive are larger than the odds that it is “present”/active.

Measured: AP-1 activity (log2 odds that TF element is present) after exposure

CCCCCCCCCCCCCC(=O)O[C@@H]1[C@@H](C)[C@@]2(O)[C@@H](C=C(CO)C[C@]3(O)C(=O)C(C)=C[C@@H]23)[C@@H]2C(C)(C)[C@]12OC(C)=O [TPA, 12-O-Tetradecanoylphorbol-13-acetate]
large increase: [1] | [2]; ZXDC1 knockdown induced using doxycycline | [2]; without ZXDC1 knockdown | [3]; U937 transduced with EVI1 expression vector | [3]; U937 transduced with empty vector | [4] | [5] | [6] | [7]; HepG2, 500 nM TPA for 24 hours | [7]; HepG2, 500 nM TPA for 48 hours | [8]; K562 transfected with BASP1-containing vector | [8]; K562 transfected with control empty vector

From patent US11776661B2, “Determination of MAPK-AP-1 pathway activity using unique combination of target genes” (InnoSIGN B.V., priority 2017, dated 2023)
